Key:
HSV-1 [1] = assay: Plaque assay of supernatant of HSV-1 infected Vero cells; assay type: cell-based, herpes simplex virus type 1 (KOS) in Vero cells
HSV-1 [2] = assay: qPCR for HSV-1 DNA copy number in iPSC-neurons; assay type: cell-based, herpes simplex virus type 1 (KOS) in human iPSC-neurons; details: acutely infected iPSC-neurons, 24hpi, 50 μM; untreated 3,461,970
HSV-1 [3] = assay: FISH analysis of HSV-1 viral DNA in infected cells; assay type: cell-based, herpes simplex virus type 1; details: HSV-1 infected cells
HSV-1 ICP0 and ICP4 = assay: Immunocytochemistry of HSV-1 immediate early genes ICP0 and ICP4; assay type: cell-based, herpes simplex virus type 1; details: infected cells
HSV-1 [4] = assay: Reactivation of quiescent HSV-1 infection in iPSC-neurons, flow cytometry; assay type: cell-based, herpes simplex virus type 1 (KOS) in human iPSC-neurons; details: compared to vehicle
HSV-1 [5] = assay: Plaque assay of supernatant of reactivated iPSC-neurons titrated on Vero cells; assay type: cell-based, herpes simplex virus type 1 (KOS) in human iPSC-neurons; details: 5BVdU+IFN-α then drug 48h, NaB reactivation
VZV = VZV infection of ARPE-19 cells, luciferase activity; assay type: cell-based; details: PAA

Structure (SMILES)	infectious particles in supernatant of treated infected cultures (plaque assay) (HSV-1 [1]; 50 μM)	viral DNA copy number by FISH (HSV-1 [3])	expression of HSV-1 immediate early genes ICP0 and ICP4 (HSV-1 ICP0 and ICP4)	other results
CO/C1=C\C(C)=C\[C@@H](C)[C@@H](O)[C@@H](C)C/C(C)=C/C=C/[C@H](OC)[C@@H]([C@@H](C)[C@@H](O)[C@H](C)[C@@]2(O)C[C@@H](O)[C@H](C)[C@@H](C(C)C)O2)OC1=O [BFLA, bafilomycin A1]	–	–	–	infectious particles in supernatant of treated infected cultures (plaque assay) (HSV-1 [1]; BFLA 0.1 μM): undetectable
Nc1nc2c(ncn2COCCO)c(=O)[nH]1 [ACV, Acyclovir]	undetectable	substantial reduction	markedly reduced expression	number of copies of viral DNA in 5 ng of total DNA (HSV-1 [2]): 483 copies; mean intensity of fluorescence (MFI) after reactivation (HSV-1 [4]): lowered; infectious viral particles in supernatant after reactivation (HSV-1 [5]): no detectable infectious viral particles
O=C(O)CP(=O)(O)O [PAA, phosphonoacetic acid]	–	substantial reduction	markedly reduced expression	inhibition of VZV infection (VZV): effectively inhibited
CCN(CC)CCCC(C)Nc1ccnc2cc(Cl)ccc12 (centres unmarked) [CQ, chloroquine]	undetectable	–	–	–

Reference: publication PMC4536133 (Antiviral research, 2015)
